From PMC4297516 (Bioorganic & medicinal chemistry letters, 2014)

Experiments:
[1] = target: human D3 receptors expressed in stably transfected HEK 293 cells (Homo sapiens, UniProt P35462); assay: forskolin-dependent whole cell adenylyl cyclase inhibition assay, D3; format: cell-based; settings: HEK293, read-out: Intrinsic activity hD3 HEK
[2] = target: human D2 receptors expressed in stably transfected HEK 293 cells (Homo sapiens, UniProt P14416); assay: forskolin-dependent whole cell adenylyl cyclase inhibition assay, D2; format: cell-based; settings: HEK293, read-out: Intrinsic activity hD2 HEK
human D2 receptors expressed in stably transfected HEK 293 cells, sequence (P14416 whole entry): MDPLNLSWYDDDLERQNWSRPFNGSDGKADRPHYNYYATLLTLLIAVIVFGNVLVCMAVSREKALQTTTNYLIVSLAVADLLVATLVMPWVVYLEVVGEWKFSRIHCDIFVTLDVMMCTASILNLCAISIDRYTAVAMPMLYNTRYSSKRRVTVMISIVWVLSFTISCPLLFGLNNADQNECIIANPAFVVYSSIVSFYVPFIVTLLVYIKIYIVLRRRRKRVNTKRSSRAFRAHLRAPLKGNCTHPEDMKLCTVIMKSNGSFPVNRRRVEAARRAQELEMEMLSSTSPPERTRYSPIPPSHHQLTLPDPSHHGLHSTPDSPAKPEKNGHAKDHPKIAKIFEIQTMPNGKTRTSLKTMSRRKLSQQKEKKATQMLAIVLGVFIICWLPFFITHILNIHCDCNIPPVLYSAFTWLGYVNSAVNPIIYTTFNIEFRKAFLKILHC

human D3 receptors expressed in stably transfected HEK 293 cells, sequence (P35462 whole entry): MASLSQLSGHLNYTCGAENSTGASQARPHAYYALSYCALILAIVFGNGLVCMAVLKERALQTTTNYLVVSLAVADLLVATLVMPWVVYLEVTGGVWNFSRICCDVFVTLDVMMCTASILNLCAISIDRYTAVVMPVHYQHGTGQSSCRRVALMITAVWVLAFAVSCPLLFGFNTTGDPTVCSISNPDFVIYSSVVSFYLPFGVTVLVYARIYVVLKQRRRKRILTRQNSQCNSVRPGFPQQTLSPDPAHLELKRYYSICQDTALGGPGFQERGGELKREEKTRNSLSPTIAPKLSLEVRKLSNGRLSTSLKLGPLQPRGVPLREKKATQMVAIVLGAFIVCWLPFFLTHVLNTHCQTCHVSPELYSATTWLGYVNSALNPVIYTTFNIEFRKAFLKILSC

Emax [1] [%]	Emax [2] [%]	Structure (SMILES)
18.7 ± 2.2	33.5 ± 3.1	COc1ccccc1N1CCN(CCCCNC(=O)c2ccc(N(C)C)cc2)CC1 [WC 10, 4-(Dimethylamino)-N-[4-(4-(2-methoxyphenyl)piperazin-1-yl)butyl]benzamide]
–	35.3 ± 1	COc1ccccc1N1CCN(CCCCNC(=O)c2ccc(CCF)cc2)CC1 [WC 44]
